{"source": "ChEMBL document CHEMBL5335819", "about": "“Discovery of an ellipticine derivative as TLR3 inhibitor against influenza A virus and SARS-CoV-2” (Bioorg Med Chem Lett, 2024)", "key": {"[1]": {"assay": "Cytotoxicity against human BEAS-2B cells assessed as reduction in cell viability incubated for 48 hrs by MTT assay", "format": "toxicity, cell-based"}, "Influenza A virus [2]": {"tested_on": "Influenza A virus", "assay": "Antiviral activity against Influenza virus infected in TLR3 human knockdown A549 cells assessed as reduction in PB2 protein level measured after 24 hrs by Western blot analysis", "format": "functional, organism-based"}, "[3]": {"assay": "Cytotoxicity against African green monkey Vero E6 cells assessed as reduction in cell viability by CCK-8 assay", "format": "toxicity, cell-based, Vero C1008", "conditions": "chlorocebus sabaeus"}, "Influenza A virus [4]": {"tested_on": "Influenza A virus", "assay": "Antiviral activity against Influenza virus infected in TLR3 knockdown human A549 cells assessed as reduction in NP protein level measured after 24 hrs by Western blot analysis", "format": "functional, organism-based"}, "Influenza A virus [5]": {"tested_on": "Influenza A virus", "assay": "Antiviral activity against Influenza virus infected in human A549 cells assessed as reduction in virus induced IFN- beta mRNA expression level by qRT-PCR analysis", "format": "functional, organism-based"}, "Influenza A virus [6]": {"tested_on": "Influenza A virus", "assay": "Antiviral activity against Influenza A virus A/WSN/33 (H1N1) infected in dog MDCK cells"}, "Influenza A virus [7]": {"tested_on": "Influenza A virus", "assay": "Antiviral activity against Influenza A virus A/Puerto Rico/8/34 (H1N1) infected in dog MDCK cells"}, "A549": {"tested_on": "A549", "assay": "Reduction in Poly(I:C) induced TLR3 mRNA expression in human A549 cells by qRT-PCR analysis", "format": "functional, cell-based"}, "Influenza A virus [8]": {"tested_on": "Influenza A virus", "assay": "Antiviral activity against Influenza virus infected in TLR3 knockdown human A549 cells by plaque assay", "format": "functional, organism-based"}, "Influenza A virus [9]": {"tested_on": "Influenza A virus", "assay": "Antiviral activity against Influenza virus infected in human A549 cells assessed as reduction in virus induced IP-10 mRNA expression level by qRT-PCR analysis", "format": "functional, organism-based"}, "Influenza A virus [10]": {"tested_on": "Influenza A virus", "assay": "Antiviral activity against Influenza virus infected in human A549 cells assessed as reduction in virus induced CCL-5 mRNA expression level by qRT-PCR analysis", "format": "functional, organism-based"}, "SARS-CoV-2 [11]": {"tested_on": "SARS-CoV-2", "assay": "Antiviral activity against SARS-CoV-2 infected in African green monkey Vero E6 cells assessed as inhibition of NP protein by indirect immunofluoresence assay", "format": "functional, organism-based", "conditions": "Severe acute respiratory syndrome coronavirus 2"}, "[12]": {"assay": "Cytotoxicity against human HEK293T cells assessed as reduction in cell viability incubated for 48 hrs by MTT assay", "format": "toxicity, cell-based, HEK-293T"}, "SARS-CoV-2 [13]": {"tested_on": "SARS-CoV-2", "assay": "Antiviral activity against SARS-CoV-2 infected in African green monkey Vero E6 cells", "format": "functional, organism-based", "conditions": "Severe acute respiratory syndrome coronavirus 2, Vero C1008"}, "MDCK": {"tested_on": "MDCK", "assay": "Cytotoxicity against MDCK cells assessed as reduction in cell viability incubated for 48 hrs by MTT assay", "format": "toxicity, cell-based, Canis lupus familiaris", "conditions": "dog"}, "[14]": {"assay": "Cytotoxicity against human A549 cells assessed as reduction in cell viability incubated for 48 hrs by MTT assay", "format": "toxicity, cell-based"}, "[15]": {"target": "Toll-like receptor 3 (Homo sapiens) (UniProt O15455)", "sequence (O15455 whole entry)": "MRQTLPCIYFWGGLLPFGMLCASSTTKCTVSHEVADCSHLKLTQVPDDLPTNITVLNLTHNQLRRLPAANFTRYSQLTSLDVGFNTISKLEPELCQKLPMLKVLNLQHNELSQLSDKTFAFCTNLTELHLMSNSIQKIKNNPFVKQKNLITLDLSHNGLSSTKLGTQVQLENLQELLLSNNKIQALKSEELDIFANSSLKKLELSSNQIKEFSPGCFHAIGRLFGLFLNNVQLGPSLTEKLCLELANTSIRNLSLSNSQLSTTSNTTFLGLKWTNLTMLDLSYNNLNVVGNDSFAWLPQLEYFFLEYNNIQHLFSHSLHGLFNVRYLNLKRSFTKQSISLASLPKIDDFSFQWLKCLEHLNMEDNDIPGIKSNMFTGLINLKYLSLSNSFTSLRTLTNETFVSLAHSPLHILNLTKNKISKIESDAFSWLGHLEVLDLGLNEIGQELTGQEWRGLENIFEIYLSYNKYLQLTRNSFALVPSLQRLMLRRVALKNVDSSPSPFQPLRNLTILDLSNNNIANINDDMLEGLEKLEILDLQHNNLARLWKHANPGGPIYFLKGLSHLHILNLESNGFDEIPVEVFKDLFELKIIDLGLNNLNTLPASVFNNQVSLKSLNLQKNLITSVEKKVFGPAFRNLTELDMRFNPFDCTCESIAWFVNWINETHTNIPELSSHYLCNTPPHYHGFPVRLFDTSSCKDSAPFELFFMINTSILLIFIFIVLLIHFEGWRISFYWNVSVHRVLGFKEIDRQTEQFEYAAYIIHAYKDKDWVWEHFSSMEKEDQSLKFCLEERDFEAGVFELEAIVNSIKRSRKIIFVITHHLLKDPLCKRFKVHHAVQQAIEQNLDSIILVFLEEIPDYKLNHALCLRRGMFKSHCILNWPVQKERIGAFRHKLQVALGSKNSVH", "assay": "Inhibition of human TLR3 expressed in mouse RAW264.7 cells assessed as inhibition of NO production", "format": "cell-based"}}, "note": "Calls of active or inactive are those of the source. The rule behind the calls is not given here.", "data": [{"smiles": "COc1ccc2[nH]c3c(C)c4ccncc4c(C)c3c2c1", "values": [{"measurement": "CC50 at 48 h", "setting": "[1]", "value": 5.33, "unit": "µM"}, {"measurement": "Activity", "setting": "Influenza A virus [2]", "value": "Active"}, {"measurement": "CC50", "setting": "[3]", "value": "> 10", "unit": "µM"}, {"measurement": "Activity", "setting": "Influenza A virus [4]", "value": "Active"}, {"measurement": "Activity", "setting": "Influenza A virus [5]", "value": "Active"}, {"measurement": "IC50", "setting": "Influenza A virus [6]", "value": 0.33, "unit": "µM"}, {"measurement": "IC50", "setting": "Influenza A virus [7]", "value": 0.14, "unit": "µM"}, {"measurement": "Activity", "setting": "A549", "value": "Active"}, {"measurement": "Activity", "setting": "Influenza A virus [8]", "value": "inactive"}, {"measurement": "Activity", "setting": "Influenza A virus [9]", "value": "Active"}, {"measurement": "Activity", "setting": "Influenza A virus [10]", "value": "Active"}, {"measurement": "Activity", "setting": "SARS-CoV-2 [11]", "value": "Dose-Dependent Effect"}, {"measurement": "CC50 at 48 h", "setting": "[12]", "value": 5.33, "unit": "µM"}, {"measurement": "IC50", "setting": "SARS-CoV-2 [13]", "value": 0.43, "unit": "µM"}, {"measurement": "CC50", "setting": "MDCK", "value": 5.33, "unit": "µM"}, {"measurement": "CC50 at 48 h", "setting": "[14]", "value": 5.33, "unit": "µM"}, {"measurement": "inhibition", "setting": "[15]", "value": "Active"}]}]}
